Data as given in patent US6030960A, “Method of treating hepatitis virus infections” (priority 1998, dated 2000).
Where “and” joins values, the source holds several entries; their conditions need not be identical. Equal values may be shown once.

Experiments:
Assay type in all cases: cell-based
[1] = test system: Hepatitis B virus; assay: Anti-hepatitis B virus activity in HEP-G2 cells persistently infected with HBV (Table 2); conditions: Hepatitis B virus, HepG2, 216 h, 10 μM, 9 days treatment
Experimental: HEP-G2 cells persistently infected with HBV were treated daily with fresh D-MEM containing 20% FBS and 10 μM compound. After 9 days incubation and treatment, the overlay medium was harvested to assay the quantity of Hepatitis B virus s antigen (HBsAg) and HBeAg by EIA (Abbott Laboratories). The overlay medium was diluted to levels of antigen in the linear range of the assay. Standard curves using dilutions of positive HBsAg and HBeAg controls were included in each assay. Virion DNA was assayed using the method set forth in Korba and Gerin, Antiviral Res., 19, 5,5-70 (1992), incorporated by reference herein. HBV DNA was extracted from the overlay medium containing virus particles and analyzed by a slot-blot hybridization technique using ^32 P-labelled 3.2 Kb Eco R1 HBV DNA fragment by comparisons to HBV standards present on nitrocellulose filters using an AMBIS beta scanner. EC90 values (90% effective concentration, i.e., drug concentration which induces a 90% decrease in the levels of HBV DNA replication intermediates in treated versus control cells) were calculated by linear regression analysis. The relative levels of HBsAg, HBeAg and virion DNA were calulated as a percentage of the average levels obtained from the untreated controls.

[2] = test system: Hepatitis B virus; assay: Effect of alkyl lipids on HBV replication in HBV persistently infected human HEP G2 cells (Table 6); conditions: for Intracellular HBV DNA, Mono (episomal 3.2-3.8 Kb HBV genomes) / Intracellular HBV DNA, RI (replication intermediates): nine days
Experimental: Cells were treated with a particular compound for nine days at 37° C. Analysis of intracellular HEIV DNA was done 24 hours following the ninth day of treatment. […] The levels of integrated HBV DNA in each cellular DNA preparation were used to calculate the levels of episomal 3.2-3.8 Kb HBV genomes (Mono) and HBV DNA replication intermediates (RI). A zero value indicates an undetectable level of HBV virion DNA. The sensitivity cut-off was 0.1 pg DNA/ml of culture medium.

[3] = Cytotoxicity in HBV persistently infected human HEP G2 cells, neutral red dye uptake (Table 5); conditions: human, hep-g2 cells, % of Control Neutral Red Dye Uptake
Description: (§1) Initially, evaluations of the alkyl lipids were done to determine whether the compounds were cytotoxic to the cells at concentrations having anti-HBV activity. The assay methodology is szt forth in Korba and Germ, Antiviral Res., 19, 55-70 (1992), incorporated by reference herein. Briefly, these cell cytotoxicity evaluations were done in 96-well plates seeded with HEP-G2 cell monolayers. The hepatoblastoma cell line HEP-G2 transfected with a plasmid carrying the gene that confers resistance to […] and four 5'-3' tandem copies of the Hepatitis B virus genome was obtained from Dr. George Acs. Proc. Natl. Acad. Sci. USA, 84, 1005-1009 (1987). Serial concentrations of compound were added to the RPMI-1640 growth medium and the growth medium was added to the 96-well plates containing the cell monolayers. The cells were incubated for a total of nine days at 37° C. The compound-containing medium was periodically replaced. Each compound was tested at four serial concentrations in triplicate. After nine days of treatment and incubation, 0.01% neutral red dye (Sigma, Inc.) was added to the overlay medium. Cell cytotoxicity was quantitated by measuring the average A510. Values in Table 1 represent the percentage of average A510 values (±standard deviation) relative to nine non-treated control wells.
(§2) An analysis was periormed to determine the cytotoxicity of the following compounds in human HEP-G2 cells persistently infected with HBV: CP-51, CP-49, CP-9, CP-126, lyso PAF and CP-7. 2'-3'-Dideoxycytidine (ddC) was used as a control in this cytotoxicity analysis. The toxicity analyses were performed in 96-well flat bottomed tissue culture plates following the same procedure set forth in Example 6 above. Each compound was tested at four concentrations, each in triplicate cultures. Uptake of neutral red dye was used to determine the relative level of toxicity. The absorbance of internalized dye at […] (A510) was used for the quantitative analysis.
(§3) Values are presented as a percentage of the average A510 values (± standard deviations) in ninz separate cultures of untreated cells maintained on the same 96-well plate as the test compounds. The percentage of dye uptake in the nine control cultures was 100±1.

[4] = test system: HEP G2 cells persistently infected with HBV; assay: as above
Description: as §1, §2, §3

[5] = test system: Hepatitis B virus; assay: Effect on synthesis of antigen markers in persistently infected human HEP G2 cell cultures (Table 7); conditions: for Relative Level of HBeAg / Relative Level of HBsAg / Relative Level of Virion DNA / activity at 10 µM: 10 μM, nine days; for Relative Level of HBeAg / Relative Level of HBsAg / Relative Level of Virion DNA: 12960 min; for activity at 10 µM: Hepatitis B virus, HepG2, 216 h
Experimental: Cells were treated with compound for nine days at 37° C. The overlay medium was harvested to measure levels of HBsAg, HBeAg and virion DNA. HBsAg and HBeAg were assayed by EIA (Abbott Laboratories). Virion DNA levels were measured as described in section B above.

[6] = Cytotoxicity of alkyl lipids, neutral red dye uptake (Table 1); conditions: human, hep-g2 cells
Description: as §1

[7] = read-out: Relative Level of HBeAg
[8] = read-out: Relative Level of HBsAg
[9] = read-out: Relative Level of Virion DNA
[10] = 10 μM, Day 9, 0 = undetectable, cut-off 0.1 pg DNA/ml

SMILES	HBV Virion DNA ([2]; 1 μM, Day 0)	HBV Virion DNA ([2]; 1 μM, Day 3)	HBV Virion DNA ([2]; 1 μM, Day 6)	HBV Virion DNA ([2]; 1 μM, Day 9)	Intracellular HBV DNA, Mono (episomal 3.2-3.8 Kb HBV genomes) ([2]; 1 μM)	Intracellular HBV DNA, RI (replication intermediates) ([2]; 1 μM)	HBV Virion DNA ([2]; 10 μM, Day 0)	HBV Virion DNA ([2]; 10 μM, Day 3)	HBV Virion DNA ([2]; 10 μM, Day 6)	HBV Virion DNA [2, 10]	Intracellular HBV DNA, Mono (episomal 3.2-3.8 Kb HBV genomes) ([2]; 10 μM)	Intracellular HBV DNA, RI (replication intermediates) ([2]; 10 μM)	viability at 216 h, 3 µM [3] [%]	viability at 216 h, 10 µM [3] [%]	viability at 216 h, 30 µM [3] [%]	viability at 216 h, 100 µM [3] [%]	Cell toxicity (greater than 50% depression of dye uptake) [4]	Relative Level of HBeAg [5]	Relative Level of HBsAg [5]	Relative Level of Virion DNA [5]	also measured
CCCCCCCCCCCCCCCCSCC(C[N+](C)(C)CCO)OC (racemic) [CP-7, N-[rac-3-(hexadecylthio)-2-methoxy-1-propyl]-N,N-dimethyl-N-(2-hydroxyethyl) ammonium bromide]	53 pg/ml Culture Medium and 64 pg/ml Culture Medium and 54 pg/ml Culture Medium	56 pg/ml Culture Medium and 51 pg/ml Culture Medium and 66 pg/ml Culture Medium and 58 pg/ml Culture Medium	46 pg/ml Culture Medium and 52 pg/ml Culture Medium and 59 pg/ml Culture Medium	48 pg/ml Culture Medium and 44 pg/ml Culture Medium and 49 pg/ml Culture Medium and 41 pg/ml Culture Medium	2.7 pg/μg Cell DNA and 2.2 pg/μg Cell DNA and 2.3 pg/μg Cell DNA and 2.4 pg/μg Cell DNA	70 pg/μg Cell DNA and 75 pg/μg Cell DNA and 63 pg/μg Cell DNA and 68 pg/μg Cell DNA	49 pg/ml Culture Medium and 63 pg/ml Culture Medium and 70 pg/ml Culture Medium and 65 pg/ml Culture Medium	70 pg/ml Culture Medium and 64 pg/ml Culture Medium and 67 pg/ml Culture Medium and 59 pg/ml Culture Medium	35 pg/ml Culture Medium and 28 pg/ml Culture Medium and 33 pg/ml Culture Medium	8 pg/ml Culture Medium and 9 pg/ml Culture Medium and 7 pg/ml Culture Medium	2.3 pg/μg Cell DNA and 2.6 pg/μg Cell DNA and 2.5 pg/μg Cell DNA	11 pg/μg Cell DNA and 13 pg/μg Cell DNA and 10 pg/μg Cell DNA and 14 pg/μg Cell DNA	98 ± 2	102 ± 6	67 ± 3	24 ± 2	did not occur	40 % of Untreated Control	69 % of Untreated Control	10 % of Untreated Control	activity at 10 µM [1, 7]: 43%; activity at 10 µM [1, 8]: 74%; activity at 10 µM [1, 9]: 10%; HBV Virion DNA ([2]; 0.1 μM, Day 0): 51 pg/ml Culture Medium and 77 pg/ml Culture Medium and 64 pg/ml Culture Medium; HBV Virion DNA ([2]; 0.1 μM, Day 3): 72 pg/ml Culture Medium and 75 pg/ml Culture Medium and 66 pg/ml Culture Medium and 51 pg/ml Culture Medium; HBV Virion DNA ([2]; 0.1 μM, Day 6): 58 pg/ml Culture Medium and 65 pg/ml Culture Medium and 98 pg/ml Culture Medium and 75 pg/ml Culture Medium; HBV Virion DNA ([2]; 0.1 μM, Day 9): 57 pg/ml Culture Medium and 89 pg/ml Culture Medium and 84 pg/ml Culture Medium and 76 pg/ml Culture Medium; Intracellular HBV DNA, Mono (episomal 3.2-3.8 Kb HBV genomes) ([2]; 0.1 μM): 2.5 pg/μg Cell DNA and 2.6 pg/μg Cell DNA and 2.8 pg/μg Cell DNA and 2.3 pg/μg Cell DNA; Intracellular HBV DNA, RI (replication intermediates) ([2]; 0.1 μM): 73 pg/μg Cell DNA and 62 pg/μg Cell DNA and 57 pg/μg Cell DNA and 76 pg/μg Cell DNA; activity at 10 µM [5, 7]: 46%; activity at 10 µM [5, 8]: 79%; activity at 10 µM [5, 9]: 9%; cytotoxicity at 216 h, 30 µM [6]: 33%; viability at 216 h, 3 µM [6]: 98 ± 2%; viability at 216 h, 10 µM [6]: 102 ± 6%; viability at 216 h, 30 µM [6]: 67 ± 3%; viability at 216 h, 100 µM [6]: 24 ± 2%
CCCCCCCCCCCCCCCCSCCOP(=O)([O-])OCC[N+](C)(C)C [CP-9, 2-hexadecylthio-1-ethylphosphocholine]	59 pg/ml Culture Medium and 53 pg/ml Culture Medium and 60 pg/ml Culture Medium and 58 pg/ml Culture Medium and 50 pg/ml Culture Medium and 55 pg/ml Culture Medium and 65 pg/ml Culture Medium	66 pg/ml Culture Medium and 60 pg/ml Culture Medium and 82 pg/ml Culture Medium and 55 pg/ml Culture Medium and 52 pg/ml Culture Medium and 64 pg/ml Culture Medium and 90 pg/ml Culture Medium and 63 pg/ml Culture Medium	57 pg/ml Culture Medium and 52 pg/ml Culture Medium and 88 pg/ml Culture Medium and 78 pg/ml Culture Medium and 83 pg/ml Culture Medium and 91 pg/ml Culture Medium and 64 pg/ml Culture Medium	69 pg/ml Culture Medium and 71 pg/ml Culture Medium and 94 pg/ml Culture Medium and 76 pg/ml Culture Medium and 80 pg/ml Culture Medium and 92 pg/ml Culture Medium	2.1 pg/μg Cell DNA and 2.6 pg/μg Cell DNA and 2.3 pg/μg Cell DNA and 2.0 pg/μg Cell DNA and 2.2 pg/μg Cell DNA and 2.4 pg/μg Cell DNA	53 pg/μg Cell DNA and 82 pg/μg Cell DNA and 67 pg/μg Cell DNA and 60 pg/μg Cell DNA and 54 pg/μg Cell DNA and 64 pg/μg Cell DNA and 66 pg/μg Cell DNA	60 pg/ml Culture Medium and 66 pg/ml Culture Medium and 61 pg/ml Culture Medium and 52 pg/ml Culture Medium	52 pg/ml Culture Medium and 68 pg/ml Culture Medium and 57 pg/ml Culture Medium and 60 pg/ml Culture Medium	33 pg/ml Culture Medium and 40 pg/ml Culture Medium and 39 pg/ml Culture Medium and 41 pg/ml Culture Medium	10 pg/ml Culture Medium and 14 pg/ml Culture Medium and 11 pg/ml Culture Medium	2.3 pg/μg Cell DNA and 2.2 pg/μg Cell DNA	13 pg/μg Cell DNA and 14 pg/μg Cell DNA and 17 pg/μg Cell DNA and 12 pg/μg Cell DNA	100 ± 1	99 ± 2	86 ± 2	45 ± 2	did not occur	57 % of Untreated Control	64 % of Untreated Control	16 % of Untreated Control	inhibition of HBV replication ([2]; in words): moderately inhibitory of HBV replication; activity at 10 µM [5, 7]: 53%; activity at 10 µM [5, 8]: 68%; activity at 10 µM [5, 9]: 13%; effect on HBsAg levels released into the culture medium ([5]; in words): None of the compounds tested; reduction in HBeAg and virion DNA levels ([5]; in words): caused a reduction
